A short description of this data set: solvent given as SMILES.

In turn, `COc1cc2c(cc1OC)C1=C[C@H](c3ccccc3)C3(C(C#N)=C(C#N)N1CC2)c1cc(Br)ccc1-c1ccc(Br)cc13` registered an absorption maximum (in ClCCl) of 311 nm.

For the compound `OC1(c2ccc(-c3cccs3)s2)CCC(c2ccccc2)CC1` (centres undefined), the absorption maximum by setting is: (in C1CCOC1) 313 nm; (in CC#N) 309 nm; (in CCCCCC) 307 nm; (in CCO) 309 nm; (in OCCOCCO) 311 nm; (in c1ccncc1) 314 nm.

As for `CC(C)(C)c1ccc2cc3c4cccc5cccc(c6cc(C(C)(C)C)cc(c2c1)c63)c54`, under “in CC1CCCCC1”, the absorption maximum came to 438 nm.

With `CCC1=C(C2=C(C3=C(CC)S(=O)(=O)c4cc(-c5ccc(C)s5)ccc43)C(F)(F)C(F)(F)C2(F)F)c2ccc(-c3ccc(C)s3)cc2S1(=O)=O`, the absorption maximum (in C1COCCO1) is recorded as 374 nm.

In the case of `CCN(CC)c1ccc(-c2nc(Oc3ccc(-c4nc5ccccc5[nH]4)cc3)nc(Oc3ccc(-c4nc5ccccc5[nH]4)cc3)n2)cc1`, for the setting “in CN(C)C=O”, the absorption maximum is reported as 376 nm.

For the compound `CCCCN1C(=O)c2cc(Oc3ccc(C(C)(C)C)cc3)c3c4c(Oc5ccc(C(C)(C)C)cc5)cc5c6c(cc(Oc7ccc(C(C)(C)C)cc7)c(c7c(Oc8ccc(C(C)(C)C)cc8)cc(c2c37)C1=O)c64)C(=O)N(CCCC)C5=O`, the absorption maximum (in ClC(Cl)Cl) is reported as 582 nm.

For the compound `COC(=O)C(NC(=O)OC(C)(C)C)c1ccc2oc(-c3ccc(F)cc3)nc2c1` (centres undefined), the absorption maximum (in CC1CCCCC1) is reported as 317 nm, the absorption maximum (in CC#N) came out at 314 nm and the absorption maximum (in CO) is 302 nm.

On to `O=C([O-])c1ccc(C(=O)[O-])c(C2=c3cc4c5c(c3Oc3c2cc2c6c3CCCN6CCC2)CCC[N+]=5CCC4)c1`, for which the absorption maximum reads like this: (in CCO) 571 nm; (in O) 574 nm.

`CCOC(=O)c1ccc2nc(N)sc2c1`: the absorption maximum is listed as 293 nm (in CC#N) and 293 nm (in ClCCl).

In the case of `O=S(=O)([O-])c1cccc2c(O)cccc12`, the absorption maximum (in O) is 304 nm.

`CC1=CC(C)=[N+]2C1=C(c1c3ccccc3cc3ccccc13)c1c(C)cc(C)n1[B-]2(F)F`: the absorption maximum amounted to 502 nm (in CC#N); 504 nm (in CCCCCC); 505 nm (in CCO); 505 nm (in CN(C)C=O); 508 nm (in Cc1ccccc1); 506 nm (in ClCCl).

Where the note is “in C1CCCCC1”, `c1ccc(-c2ccc(-c3ccc4c(c3)CCO4)cc2)cc1` yielded an absorption maximum of 289 nm.

As to `COc1ccc(-c2nc(C(C)=O)c(C)o2)cc1`, the absorption maximum was found to be 278 nm (in CC#N); 278 nm (in CCCCCC); 277 nm (in CCO); 279 nm (in CCOC(C)=O); 276 nm (in CCOCC); 277 nm (in ClCCl).

With `Fc1ccc(-c2cccc3ncc(-c4ccccc4)n23)cc1`, the absorption maximum (in ClCCl) is reported as 336 nm.

`CN1C(=CC2=C([O-])C(=Cc3oc(-c4ccc(-c5ccccc5)cc4)c[n+]3C)C2=O)C(C)(C)c2ccccc21`: the absorption maximum (in ClC(Cl)Cl) amounted to 606 nm.

`Fc1ccc(C2=C(c3ccc(F)cc3)c3cccc4c3c(cc3nc5ccccc5nc34)O2)cc1` registered an absorption maximum (in ClCCl) of 490 nm.

`Cc1ccc(/C2=c3\cc/c(o3)=C(\c3ccc(C)cc3)c3ccc([nH]3)-c3ccc4n3[B-](F)(F)[N+]3=C(C=CC3=C4c3cccs3)c3ccc2[nH]3)cc1` returned an absorption maximum (in ClC(Cl)Cl) of 709 nm.

For `CCN(CC)c1ccc2cc(C#N)/c(=N\C(=O)c3ccco3)oc2c1`, the absorption maximum runs as follows: (in CCO) 424 nm; (in ClCCl) 430 nm.

Turning to `COc1ccc(/C=C/c2nc3c4ccccc4c4ccccc4c3o2)cc1`, the absorption maximum (in CC#N) turned out to be 368 nm.

For the compound `CC1=CC(C)=[N+]2C1=C(c1ccc(-c3ccc(OS(=O)(=O)c4ccc([N+](=O)[O-])cc4[N+](=O)[O-])cc3)s1)c1c(C)cc(C)n1[B-]2(F)F`, the absorption maximum is, setting by setting: (in CO) 512 nm; (in Cc1ccccc1) 518 nm; (in ClCCl) 515 nm.

`N#Cc1nc2cnc(N)nc2n1Cc1ccccc1` came in with an absorption maximum (in C1COCCO1) of 331 nm; an absorption maximum (in CC#N) of 330 nm; an absorption maximum (in CO) of 333 nm; an absorption maximum (in ClCCl) of 326 nm; an absorption maximum (in O) of 331 nm.

`c1cc2ccc3[se]c4ccc5cccc6c(c1)c2c3c4c56` gave an absorption maximum (in ClC(Cl)Cl) of 416.5 nm.

In the case of `Oc1ccc(C2=[N+]3C(=C(c4ccccc4)c4cccn4[B-]3(F)F)C=C2)cc1`, the absorption maximum (in ClC(Cl)Cl) is 541 nm.

For the compound `NS(=O)(=O)c1ccc(N2N=C(c3ccc(O)cc3)CC2c2ccccc2)cc1` (centres undefined), the absorption maximum (in C1CCOC1) was determined as 359 nm; the absorption maximum (in C1COCCO1) came to 359 nm; the absorption maximum (in CC#N) came to 358 nm; the absorption maximum (in CC(C)O) amounted to 357 nm; the absorption maximum (in CCO) is 357 nm; the absorption maximum (in CCOC(C)=O) is 357 nm. Besides, the absorption maximum runs as follows: (in CN(C)C=O) 361 nm; (in CO) 357 nm; (in CS(C)=O) 364 nm; (in O) 359 nm.

Turning to `CCN(CC)c1ccc2cc(-c3ccc(S(C)(=O)=O)cc3)oc(=O)c2c1`, the absorption maximum reads like this: (in CC(C)=O) 375 nm; (in CCCCCC) 373 nm; (in CCCCO) 378 nm; (in CCCO) 378 nm; (in CCO) 376 nm; (in CCOC(C)=O) 374 nm. For the same compound, the absorption maximum was 379 nm (in CN(C)C=O), 376 nm (in CO) and 383 nm (in ClC(Cl)Cl).

Consider `COc1ccc2c3ccc(OC)cc3n(-c3ccc(-c4nnc(-c5c(C(C)C)cc(C(C)C)cc5C(C)C)o4)cc3)c2c1`, for which the absorption maximum (in Cc1ccccc1) is listed as 319 nm.

For `CCC1=C(C)C2=Cc3c4ccccc4c4n3[B-](C)(Oc3ccccc3-4)[N+]2=C1C` (centres undefined), the absorption maximum was found to be 616 nm (in CC#N), 621 nm (in CCCCCC), 625 nm (in Cc1ccccc1) and 622 nm (in ClCCl).

`CC(C)(C)c1ccc2c(c1)c1cc(C(C)(C)C)ccc1n2-c1c(C#N)c(-n2c3ccc(C(C)(C)C)cc3c3cc(C(C)(C)C)ccc32)c(-n2c3ccc(C(C)(C)C)cc3c3cc(C(C)(C)C)ccc32)c(-n2c3ccc(C(C)(C)C)cc3c3cc(C(C)(C)C)ccc32)c1-n1c2ccc(C(C)(C)C)cc2c2cc(C(C)(C)C)ccc21` returned an absorption maximum (in Cc1ccccc1) of 427.95 nm.

Regarding `CN(C)c1cc2c(cc1F)c(=O)c1cc(F)c(N3CCCCC3)cc1n2C`, the absorption maximum (in CCO) is 364 nm.

As for `CC1=CC(/C=C/c2ccc([N+](C)(C)C)cc2)=[N+]2C1=C(c1ccc(C#CCO[C@@H]3O[C@H](CO)[C@@H](O)C(O)[C@H]3O)cc1)c1c(C)cc(/C=C/c3ccc([N+](C)(C)C)cc3)n1[B-]2(F)F` (some centres undefined), where the note is “in CC#N”, the absorption maximum amounted to 618 nm.

On to `CC1=[N+]2C(=C(c3ccc4c(c3)Cc3ccccc3-4)c3ccc(C)n3[B-]2(F)F)C=C1c1cc2n(c1)[B-](F)(F)[N+]1=CC=CC1=C2c1c(C)cc(C)cc1C`, for which the absorption maximum is 597.5 nm (in C1CCCCC1) and 598.5 nm (in CCOC(C)=O).

Consider `COc1cc2c3c4c(c5ccc(C(C)(C)C)cc5c5c(OC)c(OC)c(OC)c(c2c(OC)c1OC)c45)=[N+]1C3=Nc2c3c4cc(OC)c(OC)c(OC)c4c4c(OC)c(OC)c(OC)c5c6cc(C(C)(C)C)ccc6c(c3c54)n2[B-]1(F)F`, for which the absorption maximum (in Cc1ccccc1) stood at 850 nm.

Where the note is “in ClCCl”, `C(S/C=C/c1ccc(/C=C/SC=C2CCCCCCC2)cc1)=C1CCCCCCC1` gave an absorption maximum of 355 nm.

Consider `C[C@]12C(=O)NC(=O)N([C@H]3CC(O)[C@@H](CO)O3)[C@H]1[C@H]1Oc3cc4oc(=O)ccc4cc3[C@H]12` (some centres undefined), for which the absorption maximum runs as follows: (in CC(C)O) 327 nm; (in CCO) 327 nm; (in CCOCC) 325 nm; (in CO) 328 nm; (in O) 329 nm.

`N#C/C(=C\c1ccc(-c2ccncc2)cc1)c1ccc(-c2ccncc2)cc1` displayed an absorption maximum (in ClCCl) of 356 nm.

Under “in C1CCOC1”, `CC(C)(C)[Si](C)(C)C#CC1=CC2=c3cc(C#C[Si](C)(C)C(C)(C)C)c4nc(C(F)(F)C(F)(F)C(F)(F)F)nc5c(C#C[Si](C)(C)C(C)(C)C)cc(c3c54)C3=CC(C#C[Si](C)(C)C(C)(C)C)=C4N=C(C(F)(F)C(F)(F)C(F)(F)F)N=C1C4C32` (centres undefined) had an absorption maximum of 513 nm.

Take `Cc1cc(O)c(C(C)C)cc1/N=C/c1ccc([N+](=O)[O-])cc1`: the absorption maximum (in C1CCCCC1) came out at 385 nm; the absorption maximum (in C1CCOC1) was 402 nm; the absorption maximum (in C1COCCO1) was 393 nm; the absorption maximum (in CC#N) is on record as 392 nm; the absorption maximum (in CC(C)(C)O) came out at 407 nm; the absorption maximum (in CC(C)O) is given as 404 nm. Further, the absorption maximum is reported as 383 nm (in CCCCCC); 405 nm (in CCCCO); 402 nm (in CCO); 397 nm (in CCOC(C)=O); 407 nm (in CN(C)C=O); 399 nm (in CO). For the same compound, the absorption maximum by setting is: (in CS(C)=O) 410 nm; (in ClC(Cl)Cl) 398 nm; (in ClCCl) 392 nm; (in O) 395 nm; (in OCCO) 401 nm.

With `CCCCC(CC)COc1ccc2nc(-c3ccc(-c4ccc(OC)cc4)s3)sc2c1` (centres undefined), the absorption maximum (in ClCCl) is recorded as 365 nm.

In the case of `Cc1ccc(N(CC(=O)[O-])CC(=O)[O-])cc1OCCOc1cc(-c2cc3ccc(C(=O)[O-])cc3[nH]2)ccc1N(CC(=O)[O-])CC(=O)[O-]`, the absorption maximum (in O) came to 349 nm.

For the compound `O=C1OC(=O)C2=C1[Se][C@]13C2=C[C@H](c2ccccc21)c1ccccc13`, under “in ClCCl”, the absorption maximum is listed as 421 nm.

Consider `COc1ccc(C2=C(c3ccc(OC)cc3)C(c3ccccc3)=[N+]3C2=Nc2c(-c4ccc(OC)cc4)c(-c4ccc(OC)cc4)c(-c4ccccc4)n2[B-]3(F)F)cc1`, for which the absorption maximum (in Cc1ccccc1) is listed as 654 nm.

As to `C1=CN2C[n+]3ccc4ccccc4c3N=C2c2ccccc21`, the absorption maximum (in CO) was determined as 453 nm.
